Reference: patent publication US7183067B2 (priority 2002, dated 2007)

Columns and labels:
[1] = target: T1, concanavalin A (Con A) (Canavalia ensiformis, UniProt P02866); assay: biochemical; format: binding
T1 construct: purchased SEIKAGAKU KOGYO

[2] = target: T2, BSA (Bos taurus, UniProt P02769); assay: SPR measurement of ligand-introduced chip with BSA; format: binding, bovine
T2 construct: purchased SIGMA
Protocol: (§1) PBS solutions containing proteins of various concentrations were flown onto the ligand-introduced chip obtained in (5-1) by 60 μL at a flow rate of 20 μL/min so as to observe the binding and dissociating behavior of the ligand-introduced chip with each protein by an SPR measurement.
(§2) The following proteins were used. • BSA (SIGMA ALUBMUN, BOVINE) • Concanavalin A (SEIKAGAKU KOGYO) • Pea Lectin (SEIKAGAKU KOGYO) • Peanut Lectin (SEIKAGAKU KOGYO) • RCA120 (SEIKAGAKU KOGYO)
(§3) Moreover, Con A of various concentrations was acted on the ligand-introduced chip so as to conduct an SPR measurement on an interaction. Also, an SPR measurement was also conducted on an interaction with BSA and PSA so as to observe a resonant angle change.
(§4) Further, ligand-introduced chips were produced which includes 4-Mal and 4-Glc of the present invention and 2-Mal and 2-Glc serving as a comparative example immobilized thereon. Con A, BSA, PSA, RCA120, and PNA solutions of various concentrations were flown onto the ligand-introduced chips so as to observe a resonant angle change by an SPR measurement.

[3] = target: T3, Pea Lectin (PSA) (Pisum sativum, UniProt P02867); assay: SPR measurement of ligand-introduced chip with PSA; format: binding
T3 construct: purchased SEIKAGAKU KOGYO
T3 sequence (P02867 31-211 limits assumed): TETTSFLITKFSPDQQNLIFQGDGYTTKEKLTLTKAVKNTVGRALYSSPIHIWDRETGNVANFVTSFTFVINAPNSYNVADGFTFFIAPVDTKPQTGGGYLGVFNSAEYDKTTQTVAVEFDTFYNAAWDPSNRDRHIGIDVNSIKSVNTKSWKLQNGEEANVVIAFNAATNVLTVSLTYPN
T3 sequence (P02867 218-269 limits assumed): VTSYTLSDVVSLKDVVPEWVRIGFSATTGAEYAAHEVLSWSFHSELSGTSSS
Protocol: as §1, §2, §3, §4

[4] = target: T1, concanavalin A (Con A); assay: Affinity chromatography on 4-Mal affinity column, SDS-PAGE of fractions: Con A; format: binding; conditions: mixed solution of Con A, PSA and BSA in PBS; elution with PBS, glucose, NaOH
Protocol: Following a general producing method of an affinity column, an affinity column including the ligand 4-Mal, obtained in Example 4, immobilized thereto. As a column carrier, Hitrap NHS-activated Hp (column volume 1 mL; manufactured by Amersham Co., Ltd.) was used. The column carrier, including a gel matrix and N-hydroxysuccinimide serving as an active group immobilized thereon through a spacer ([…] NHS group per 1 mL gel), is suitable to immobilizing onto a carrier a compound having an amino group. FIG. 6 is a schematic diagram showing the steps for preparation of an affinity column. […]
Absorbance of the fractions collected by the affinity chromatography in (6-2) was measured at a wavelength of 280 nm using an ultraviolet spectrometer. […]
The fractions (1 mL) so collected were freeze-dried and then mixed with the ion exchanged water (100 μL) so as to dissolve the fractions again. […] A ready-made gel (ATTO PAGEL-Compact AE-6000 (containing SDS 12.5%)) was set in an electrophoretic cell filled with the electrophoresis buffer solution. […]
Specifically, 12.5% acrylamide gel (ATTO PAGEL-Compact AE-6000) was used to perform SDS-PAGE, and Coomassie brilliant blue was used for dyeing, the result of which is shown in FIG. 8. […] In the Mix-3 fraction, BSA and PSA bands disappeared and only Con A band was detected. […]

[5] = target: T4, neutroavidin (Gallus gallus, UniProt P02701); assay: Immobilization of ligand onto neutroavidin-immobilized SPR sensor chip; format: binding; conditions: ligand solutions flown until no further increase
T4 construct: purchased PIERCE CA47105
Protocol: The ligand-introduced chip was obtained by the following procedure. In the beginning, a sensor chip (manufactured by Japan Laser Electronics Co., Ltd.), prepared by depositing a gold thin film of 50 nm thick on a glass substrate of 13 mm×20 mm×0.7 mm, was placed in a UV ozone cleaner (product name: NL-UV253, Japan Laser Electronics Co., Ltd.) and was exposed to ultraviolet rays for 20 minutes so as to wash the surface of the sensor chip with ozone. Next, the sensor chip was immersed in a 4,4′-methanol dithiobutyrate solution (100 μM) in a Petri dish and gently shaken for 30 minutes at room temperature (product name: Bio Dancer, New Brunswick Scientific Co., Ltd.). 4-thiobutyric acid was immobilized onto the chip through a gold-sulfur bond. The chip was washed three times with ethanol. […] A surface plasmon resonant angle change then observed was monitored. […]
Next, 4.9 μM, 16.3 μM, and 49 μM 4-Mal solutions were flown onto (S) by 60 μL at a flow rate of 10 μL/min for immobilization; 0.49 μM and 4.9 μM 4-Glc solutions were flown onto (R) by 60 μL at a flow rate of 10 μL/min for immobilization. […] A resonant angle change quantity between a point of time when the resonant angle change had become constant and a point of time before the immobilization was defined as a immobilization quantity. […] In this sensorgram, the immobilization quantity of 4-Mal was 220 RU and that of 4-Gcl was 220 RU. […]

[6] = 1.0 μM Con A, Mal ligand chip against Glc ligand chip (2-channel), PBS pH 7.4, 25° C.

T4 sequence (P02701 25-152): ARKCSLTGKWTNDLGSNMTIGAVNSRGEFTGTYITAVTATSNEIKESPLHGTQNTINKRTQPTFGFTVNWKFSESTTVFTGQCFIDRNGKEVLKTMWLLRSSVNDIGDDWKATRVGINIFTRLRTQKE

With `O=C1N[C@H]2[C@H](CS[C@H]2CCCCC(=O)N(CCNC(=O)c2ccc(NC[C@H](O)[C@@H](O)[C@H](O[C@H]3O[C@H](CO)[C@@H](O)[C@H](O)[C@H]3O)[C@H](O)CO)cc2)CCNC(=O)c2ccc(NC[C@H](O)[C@@H](O)[C@H](O[C@H]3O[C@H](CO)[C@@H](O)[C@H](O)[C@H]3O)[C@H](O)CO)cc2)N1` [Compound 2-Mal, reference compound] the Kd [1] was 960 ± 50 nM, the “kd: dissociation velocity constant” value [1, 6] was 1.4 ± 0.86 s^−1 × 10^−2 and the kon ([1]; 1.0 μM Con A, Mal ligand chip against Glc ligand chip (2-channel), PBS pH 7.4, 25° C., read-out: ka: binding velocity constant) was 15000 ± 8600 M⁻¹ s⁻¹.
For `O=C(CCN(CCC(=O)NCCN(CCC(=O)Nc1cccc(NCC(O)C(O)C(OC2OC(CO)C(O)C(O)C2O)C(O)CO)c1)CCC(=O)Nc1cccc(NCC(O)C(O)C(OC2OC(CO)C(O)C(O)C2O)C(O)CO)c1)C(=O)CCCCC1SCC2NC(=O)NC21)NCCN(CCC(=O)Nc1cccc(NCC(O)C(O)C(OC2OC(CO)C(O)C(O)C2O)C(O)CO)c1)CCC(=O)Nc1cccc(NCC(O)C(O)C(OC2OC(CO)C(O)C(O)C2O)C(O)CO)c1` (stereo not shown) [Compound 4-Mal], the “binding of Con A to ligand by SPR” value [1] was “firmly binds”, the “KD (kd/ka): dissociation constant” value [1, 6] was 590 ± 60 nM and the “kd: dissociation velocity constant” value [1, 6] was 0.72 ± 0.021 s^−1 × 10^−2. For the same compound, the “specific interaction with BSA by SPR” value [2] was “do not specifically interact”, the “specific interaction with PSA by SPR” value [3] was “do not specifically interact” and the “retention of Con A on affinity column” value [4] was “A majority of Con A was retained”. For the same compound, the “ligand immobilization quantity (resonant angle change)” value [5] was 220 RU.
